Earlier results on 2 compounds are cited in patent publication US8197846B2, “Sustained release pharmaceutical composition” (Astellas Pharma Inc., priority 2003, dated 2012).

Counter-ions that a name gives are not always drawn.

Assay in data set [1]: not given
This is another data set of the same source.

For the compound `CCOc1ccccc1OCCN[C@H](C)Cc1ccc(OC)c(S(N)(=O)=O)c1` [tamsulosin hydrochloride], the “adverse reactions (including abnormal clinical data) presumably related to the agent” value (104 cases among 4724 cases, approval and post marketing surveillance in Japan) was 2.2%. In addition, the “frequency of hypotension, postural hypotension, blood pressure, tachycardia and palpitation” value (package insert, circulatory area) is “less than 0.1%”. Also, the “frequency of orthostatic syncope, headache and sleepiness” value (package insert, psychoneural area) is “less than 0.1%”. The “Cmax and AUC versus dose” value in data set [1] (0.1 to 0.6 mg oral, healthy adult volunteers) was “increased almost in proportion to the dose administered”. Besides, the “day on which plasma concentration profiles reached the steady state” value in data set [1] (repeated administration per os for seven days) was 4 days.
As to `CCOc1ccccc1OCCN[C@H](C)Cc1ccc(OC)c(S(N)(=O)=O)c1` [Tamsulosin, (R)(−)-5-[2-[[2-(o-ethoxyphenoxy)ethyl]-amino]propyl]-2-methoxybenzenesulfonamide], the “adverse reactions when administered as powder triturated with lactose” value (powder triturated with lactose) is “postural hypotension was induced”.
